ChEMBL document CHEMBL2010711, “Synthesis and comparative evaluation of 4-oxa- and 4-aza-podophyllotoxins as antiproliferative microtubule destabilizing agents” (Bioorg Med Chem Lett, 2012)
The source made the active and inactive calls.

Assays:
Paracentrotus lividus [1] = assay: Antimitotic activity against Paracentrotus lividus embryo assessed as concentration required to cause 100% cleavage arrest after 2.5 to 6 hrs; format: functional
Paracentrotus lividus [2] = assay: Microtubule destabilizing activity in Paracentrotus lividus embryo assessed as concentration required to cause 100% embryo spinning after 15 mins to 20 hrs; format: functional
Paracentrotus lividus [3] = assay: Antimitotic activity against Paracentrotus lividus embryo assessed as concentration required to cause 100% cleavage alteration after 2.5 to 6 hrs; format: functional
Paracentrotus lividus [4] = assay: Microtubule destabilizing activity in Paracentrotus lividus embryo assessed as embryo spinning at 2 fold less effective threshold concentration after 15 mins to 20 hrs; format: functional, organism-based
Paracentrotus lividus [5] = assay: Antimitotic activity against Paracentrotus lividus embryo assessed as cleavage arrest at 2 fold less effective threshold concentration after 2.5 to 6 hrs; format: functional, organism-based
Paracentrotus lividus [6] = assay: Antimitotic activity against Paracentrotus lividus embryo assessed as cleavage alteration at 2 fold less effective threshold concentration after 2.5 to 6 hrs; format: functional, organism-based
NCI-H460 = assay: Cytotoxicity against human NCI-H460 cells after 48 hrs by trypan blue dye exclusion assay; format: functional; settings: NCI-H460, 48 h
SNB-75 = assay: Cytotoxicity against human SNB75 cells after 48 hrs by trypan blue dye exclusion assay; format: functional; settings: SNB-75, 48 h
UACC-62 = assay: Cytotoxicity against human UACC62 cells after 48 hrs by trypan blue dye exclusion assay; format: functional; settings: UACC-62, 48 h
CCRF-CEM = assay: Cytotoxicity against human CCRF-CEM cells after 48 hrs by trypan blue dye exclusion assay; format: functional
HCT-15 = assay: Cytotoxicity against human HCT15 cells after 48 hrs by trypan blue dye exclusion assay; format: functional; settings: HCT-15, 48 h
MDA-MB-468 = assay: Cytotoxicity against human MDA-MB-468 cells after 48 hrs by trypan blue dye exclusion assay; format: functional; settings: MDA-MB-468, 48 h
HOP-92 = assay: Cytotoxicity against human HOP92 cells after 48 hrs by trypan blue dye exclusion assay; format: functional; settings: HOP-92, 48 h
MOLT-4 = assay: Cytotoxicity against human MOLT4 cells after 48 hrs by trypan blue dye exclusion assay; format: functional; settings: MOLT-4, 48 h
NCI-H322M = assay: Cytotoxicity against human NCI-H322M cells after 48 hrs by trypan blue dye exclusion assay; format: functional
TK-10 = assay: Cytotoxicity against human TK10 cells after 48 hrs by trypan blue dye exclusion assay; format: functional; settings: TK-10, 48 h
COLO 205 = assay: Cytotoxicity against human COLO205 cells after 48 hrs by trypan blue dye exclusion assay; format: functional; settings: COLO 205, 48 h
M14 = assay: Cytotoxicity against human M14 cells after 48 hrs by trypan blue dye exclusion assay; format: functional; settings: M14, 48 h
SF-268 = assay: Cytotoxicity against human SF268 cells after 48 hrs by trypan blue dye exclusion assay; format: functional; settings: SF-268, 48 h
UO-31 = assay: Cytotoxicity against human UO31 cells after 48 hrs by trypan blue dye exclusion assay; format: functional; settings: UO-31, 48 h
SW-620 = assay: Cytotoxicity against human SW620 cells after 48 hrs by trypan blue dye exclusion assay; format: functional; settings: SW-620, 48 h
SN12C = assay: Cytotoxicity against human SN12C cells after 48 hrs by trypan blue dye exclusion assay; format: functional
SF-539 = assay: Cytotoxicity against human SF539 cells after 48 hrs by trypan blue dye exclusion assay; format: functional; settings: SF-539, 48 h
HCT-116 = assay: Cytotoxicity against human HCT116 cells after 48 hrs by trypan blue dye exclusion assay; format: functional; settings: HCT-116, 48 h
A498 = assay: Cytotoxicity against human A498 cells after 48 hrs by trypan blue dye exclusion assay; format: functional; settings: A498, 48 h
BT-549 = assay: Cytotoxicity against human BT549 cells after 48 hrs by trypan blue dye exclusion assay; format: functional; settings: BT-549, 48 h
OVCAR-5 = assay: Cytotoxicity against human OVCAR5 cells after 48 hrs by trypan blue dye exclusion assay; format: functional; settings: OVCAR-5, 48 h
SNB-19 = assay: Cytotoxicity against human SNB19 cells after 48 hrs by trypan blue dye exclusion assay; format: functional; settings: SNB-19, 48 h
KM12 = assay: Cytotoxicity against human KM12 cells after 48 hrs by trypan blue dye exclusion assay; format: functional; settings: KM12, 48 h
MDA-MB-435 = assay: Cytotoxicity against human MDA-MB-435 cells after 48 hrs by trypan blue dye exclusion assay; format: functional; settings: MDA-MB-435, 48 h
SF-295 = assay: Cytotoxicity against human SF295 cells after 48 hrs by trypan blue dye exclusion assay; format: functional; settings: SF-295, 48 h
HCC 2998 = assay: Cytotoxicity against human HCC2998 cells after 48 hrs by trypan blue dye exclusion assay; format: functional; settings: HCC 2998, 48 h
SK-MEL-2 = assay: Cytotoxicity against human SK-MEL-2 cells after 48 hrs by trypan blue dye exclusion assay; format: functional; settings: SK-MEL-2, 48 h
786-0 = assay: Cytotoxicity against human 786-0 cells after 48 hrs by trypan blue dye exclusion assay; format: functional; settings: 786-0, 48 h
NCI-H23 = assay: Cytotoxicity against human NCI-H23 cells after 48 hrs by trypan blue dye exclusion assay; format: functional; settings: NCI-H23, 48 h
RXF 393 = assay: Cytotoxicity against human RXF393 cells after 48 hrs by trypan blue dye exclusion assay; format: functional; settings: RXF 393, 48 h
DU-145 = assay: Cytotoxicity against human DU145 cells after 48 hrs by trypan blue dye exclusion assay; format: functional; settings: DU-145, 48 h
CAKI-1 = assay: Cytotoxicity against human CAKI-1 cells after 48 hrs by trypan blue dye exclusion assay; format: functional; settings: CAKI-1, 48 h
A549 = assay: Cytotoxicity against human A549 cells after 48 hrs by trypan blue dye exclusion assay; format: functional; settings: A549, 48 h
OVCAR-4 = assay: Cytotoxicity against human OVCAR4 cells after 48 hrs by trypan blue dye exclusion assay; format: functional; settings: OVCAR-4, 48 h
MDA-MB-231 = assay: Cytotoxicity against human MDA-MB-231 cells after 48 hrs by trypan blue dye exclusion assay; format: functional; settings: MDA-MB-231, 48 h
SK-MEL-5 = assay: Cytotoxicity against human SK-MEL-5 cells after 48 hrs by trypan blue dye exclusion assay; format: functional; settings: SK-MEL-5, 48 h
NCI-H522 = assay: Cytotoxicity against human NCI-H522 cells after 48 hrs by trypan blue dye exclusion assay; format: functional; settings: NCI-H522, 48 h
HL-60(TB) = assay: Cytotoxicity against human HL-60(TB) cells after 48 hrs by trypan blue dye exclusion assay; format: functional; settings: HL-60, 48 h
U-251 = assay: Cytotoxicity against human U251 cells after 48 hrs by trypan blue dye exclusion assay; format: functional; settings: U-251, 48 h
SR = assay: Cytotoxicity against human SR cells after 48 hrs by trypan blue dye exclusion assay; format: functional
OVCAR-8 = assay: Cytotoxicity against human OVCAR8 cells after 48 hrs by trypan blue dye exclusion assay; format: functional; settings: OVCAR-8, 48 h
IGROV-1 = assay: Cytotoxicity against human IGROV1 cells after 48 hrs by trypan blue dye exclusion assay; format: functional; settings: IGROV-1, 48 h
HT-29 = assay: Cytotoxicity against human HT-29 cells after 48 hrs by trypan blue dye exclusion assay; format: functional; settings: HT-29, 48 h
RPMI-8226 = assay: Cytotoxicity against human RPMI8226 cells after 48 hrs by trypan blue dye exclusion assay; format: functional; settings: RPMI-8226, 48 h
SK-OV-3 = assay: Cytotoxicity against human SKOV3 cells after 48 hrs by trypan blue dye exclusion assay; format: functional; settings: SK-OV-3, 48 h
SK-MEL-28 = assay: Cytotoxicity against human SK-MEL-28 cells after 48 hrs by trypan blue dye exclusion assay; format: functional; settings: SK-MEL-28, 48 h
MCF7 = assay: Cytotoxicity against human MCF7 cells after 48 hrs by trypan blue dye exclusion assay; format: functional; settings: MCF7, 48 h
NCI-H226 = assay: Cytotoxicity against human NCI-H226 cells after 48 hrs by trypan blue dye exclusion assay; format: functional; settings: NCI-H226, 48 h
LOX IMVI = assay: Cytotoxicity against human LOXIMVI cells after 48 hrs by trypan blue dye exclusion assay; format: functional
PC-3 = assay: Cytotoxicity against human PC3 cells after 48 hrs by trypan blue dye exclusion assay; format: functional; settings: PC-3, 48 h
NCI/ADR-RES = assay: Cytotoxicity against human NCI/ADR-RES cells after 48 hrs by trypan blue dye exclusion assay; format: functional
OVCAR-3 = assay: Cytotoxicity against human OVCAR3 cells after 48 hrs by trypan blue dye exclusion assay; format: functional; settings: OVCAR-3, 48 h
ACHN = assay: Cytotoxicity against human ACHN cells after 48 hrs by trypan blue dye exclusion assay; format: functional
EKVX = assay: Cytotoxicity against human EKVX cells after 48 hrs by trypan blue dye exclusion assay; format: functional
[7] = Cytotoxicity against human Hs 578T cells after 48 hrs by trypan blue dye exclusion assay; format: functional

Compound: COc1ccc2c(c1)OC1=C(C(=O)OC1)C2c1cc(OC)c2c(c1OC)OCO2 (stereo unspecified)
- EC (Paracentrotus lividus [1]): 500 nM
- EC (Paracentrotus lividus [2]): 4000 nM
- EC (Paracentrotus lividus [3]): 100 nM
- Activity (Paracentrotus lividus [4]): inactive
- Activity (Paracentrotus lividus [5]): inactive
- Activity (Paracentrotus lividus [6]): inactive

Compound: COc1ccc2c(c1)C(c1cc(OC)c3c(c1)OCO3)C1=C(COC1=O)O2 (stereo unspecified)
- EC (Paracentrotus lividus [1]): 200 nM
- EC (Paracentrotus lividus [2]): 2000 nM
- EC (Paracentrotus lividus [3]): 50 nM
- Activity (Paracentrotus lividus [4]): inactive
- Activity (Paracentrotus lividus [5]): inactive
- Activity (Paracentrotus lividus [6]): inactive

Compound: COc1ccc2c(c1)OC1=C(C(=O)OC1)C2c1cc(OC)c2c(c1)OCCO2 (stereo unspecified)
- GI50 (NCI-H460): > 100000 nM
- GI50 (SNB-75): 33.7 nM
- GI50 (UACC-62): 39.2 nM
- GI50 (CCRF-CEM): 31.3 nM
- GI50 (HCT-15): 47.5 nM
- GI50 (MDA-MB-468): 23.1 nM
- EC (Paracentrotus lividus [1]): 50 nM
- GI50 (HOP-92): 41.6 nM
- GI50 (MOLT-4): 81.7 nM
- GI50 (NCI-H322M): 47.4 nM
- GI50 (TK-10): 36500 nM
- GI50 (COLO 205): 30.7 nM
- GI50 (M14): 52.2 nM
- GI50 (SF-268): 85.1 nM
- GI50 (UO-31): 71.3 nM
- GI50 (SW-620): 36.2 nM
- GI50 (SN12C): 54 nM
- GI50 (SF-539): 29.3 nM
- GI50 (HCT-116): 48.3 nM
- EC (Paracentrotus lividus [2]): 500 nM
- EC (Paracentrotus lividus [3]): 10 nM
- GI50 (A498): 23.1 nM
- GI50 (BT-549): 131 nM
- GI50 (OVCAR-5): 126 nM
- GI50 (SNB-19): 50.4 nM
- GI50 (KM12): 42.7 nM
- GI50 (MDA-MB-435): 19.7 nM
- GI50 (SF-295): 31.5 nM
- GI50 (HCC 2998): 75.7 nM
- GI50 (SK-MEL-2): 48.3 nM
- GI50 (786-0): 61.4 nM
- GI50 (NCI-H23): 38.2 nM
- GI50 (RXF 393): 18.7 nM
- GI50 (DU-145): 51.9 nM
- GI50 (CAKI-1): 36.3 nM
- GI50 (A549): 52.3 nM
- GI50 (OVCAR-4): 236 nM
- GI50 (MDA-MB-231): 110 nM
- GI50 (SK-MEL-5): 32.9 nM
- GI50 (NCI-H522): 37.3 nM
- Activity (Paracentrotus lividus [4]): inactive
- GI50 (HL-60(TB)): 23.2 nM
- GI50 (U-251): 85.1 nM
- GI50 (SR): 32.8 nM
- Activity (Paracentrotus lividus [5]): inactive
- GI50 (OVCAR-8): 49.5 nM
- Activity (Paracentrotus lividus [6]): inactive
- GI50 (IGROV-1): 86 nM
- GI50 (HT-29): 38.4 nM
- GI50 (RPMI-8226): 41 nM
- GI50 (SK-OV-3): 33.3 nM
- GI50 (SK-MEL-28): 51.7 nM
- GI50 (MCF7): 32.9 nM
- GI50 (NCI-H226): 71.2 nM
- GI50 (LOX IMVI): 48.5 nM
- GI50 (PC-3): 46.9 nM
- GI50 (NCI/ADR-RES): 23.5 nM
- GI50 (OVCAR-3): 26.2 nM
- GI50 (ACHN): 171 nM
- GI50 (EKVX): 68.2 nM
- GI50 [7]: 30.8 nM

Compound: COc1cc([C@H]2C3=C(COC3=O)Nc3cc4c(cc32)OCO4)cc(OC)c1OC
- Activity (Paracentrotus lividus [4]): inactive
- Activity (Paracentrotus lividus [5]): inactive
- Activity (Paracentrotus lividus [6]): inactive
